Laboratory results reported in US9221787B2, “Sulphonamine compounds and methods of making and using same” (Zafgen, Inc., priority 2010, dated 2015).

molecular target: T1, recombinant human MetAP2 (Homo sapiens, UniProt P50579); test: Inhibition of recombinant human MetAP2 activity (Amplex red fluorescence assay); assay type: biochemical; details: manganese enzyme, 0.75 mM Methionine-Alanine-Serine (MAS) substrate, 30 minutes at 25° C., pH 7.5, 1% DMSO
T1 construct: Flag; made in house; host or cells: Sf9 insect cells
Description: Compounds are tested for their capacity to inhibit recombinant human MetAP2 activity using the following assay.
Human recombinant Flag-MetAP2 expressed in Sf9 cells followed by affinity purification and EDTA treatment to remove endogenous active site cation is dialysed against MnCl2 to produce the manganese enzyme used in the assay. The assay is carried out for 30 minutes at 25° C. in 50 mM HEPES buffer containing 100 mM NaCl, pH 7.5 the presence of 0.75 mM Methionine-Alanine-Serine (MAS) substrate and […] amino acid oxidase using a dilution of purified MetAP2 giving approximately 50,000 RFU control activity. Cleavage of the substrate by MetAP2 and oxidation of free methionine by amino acid oxidase is detected and quantified using fluorescence generated by Amplex red (10-acetyl-3,7-dihydroxyphenoxazine) in combination with horseradish peroxidase which detects H2O2 released during the oxidation step. The fluorescent signal is detected using a multiwell fluorimeter. Compounds are diluted in DMSO prior to addition to assay buffer, the final DMSO concentration in the assay being 1%.
The IC50 is defined as the concentration at which a given compound achieves 50% inhibition of control. IC50 values are calculated using the XLfit software package (version 2.0.5).

T1 sequence (P50579 whole entry): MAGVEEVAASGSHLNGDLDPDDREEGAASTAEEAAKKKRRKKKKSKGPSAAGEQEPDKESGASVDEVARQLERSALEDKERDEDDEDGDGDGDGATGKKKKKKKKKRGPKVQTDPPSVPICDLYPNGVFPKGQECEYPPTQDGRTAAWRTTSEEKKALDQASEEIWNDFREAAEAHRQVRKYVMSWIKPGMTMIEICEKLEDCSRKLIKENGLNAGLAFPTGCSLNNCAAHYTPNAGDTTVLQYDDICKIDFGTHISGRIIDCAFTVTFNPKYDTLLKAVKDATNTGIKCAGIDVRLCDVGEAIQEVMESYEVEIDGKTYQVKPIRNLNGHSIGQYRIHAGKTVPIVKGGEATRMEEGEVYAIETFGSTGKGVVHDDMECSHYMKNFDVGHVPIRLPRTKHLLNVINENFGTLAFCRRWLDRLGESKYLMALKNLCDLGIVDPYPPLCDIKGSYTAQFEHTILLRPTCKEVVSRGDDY

Row | Compound | IC50
1 | O=C(O)c1c(NS(=O)(=O)c2ccccc2)sc2c1CCCO2 | < 0.2 µM
2 | O=C(O)c1c(NS(=O)(=O)c2ccccc2Cl)sc2c1CCCC2 [2-(2-Chlorobenzenesulphonylamino)-4,5,6,7-tetrahydrobenzo[b]thiophene-3-carboxylic acid] | 0.2 to 2 µM
3 | CCc1ccccc1S(=O)(=O)Nc1sc2c(c1C(=O)O)CCCC2 [2-(2-Ethylbenzenesulphonylamino)-4,5,6,7-tetrahydrobenzo[b]thiophene-3-carboxylic acid] | < 0.2 µM
4 | O=C(O)c1c(NS(=O)(=O)c2ccccc2F)sc2c1CCCC2 [2-(2-Fluorobenzenesulphonylamino)-4,5,6,7-tetrahydrobenzo[b]thiophene-3-carboxylic acid] | 0.2 to 2 µM
5 | COc1ccccc1S(=O)(=O)Nc1sc2c(c1C(=O)O)CCCC2 [2-(2-Methoxybenzenesulphonylamino)-4,5,6,7-tetrahydrobenzo[b]thiophene-3-carboxylic acid] | < 0.2 µM
6 | Cc1ccccc1S(=O)(=O)Nc1sc2c(c1C(=O)O)CCCC2 [2-(2-Methylbenzenesulphonylamino)-4,5,6,7-tetrahydrobenzo[b]thiophen-3-carboxylic acid] | < 0.2 µM
7 | O=C(O)c1c(NS(=O)(=O)c2ccccc2C(F)(F)F)sc2c1CCCC2 [2-(2-Trifluoromethylbenzenesulphonylamino)-4,5,6,7-tetrahydrobenzo[b]thiophene-3-carboxylic acid] | 0.2 to 2 µM
8 | O=C(O)c1c(NS(=O)(=O)c2cccc(Cl)c2)sc2c1CCCC2 [2-(3-Chlorobenzenesulphonylamino)-4,5,6,7-tetrahydrobenzo[[b]thiophene-3-carboxylic acid] | 0.2 to 2 µM
9 | COc1cccc(S(=O)(=O)Nc2sc3c(c2C(=O)O)CCCC3)c1 [2-(3-Methoxybenzenensulphonylamino)-4,5,6,7-tetrahydrobenzo[b]thiophene-3-carboxylic acid] | 0.2 to 2 µM
10 | O=C(O)c1c(NS(=O)(=O)c2ccc(Cl)cc2)sc2c1CCCC2 [2-(4-Chlorobenzenesulphonylamino)-4,5,6,7-tetrahydrobenzo[b]thiophene-3-carboxylic acid] | 0.2 to 2 µM
11 | Cc1cc(F)ccc1S(=O)(=O)Nc1sc2c(c1C(=O)O)CCCC2 [2-(4-Fluoro-2-methylbenzenesulphonylamino)-4,5,6,7-tetrahydrobenzo[b]thiophene-3-carboxylic acid] | 0.2 to 2 µM
12 | O=C(O)c1c(NS(=O)(=O)c2ccc(F)cc2)sc2c1CCCC2 [2-(4-Fluorobenzenesulphonylamino)-4,5,6,7-tetrahydrobenzo[b]thiophene-3-carboxylic acid] | < 0.2 µM
13 | O=C(O)c1c(NS(=O)(=O)C2CCCCC2)sc2c1CCCC2 [2-(Cyclohexanesulphonylamino)-4,5,6,7-tetrahydrobenzo[b]thiophene-3-carboxylic acid] | 0.2 to 2 µM
14 | CC1CCc2sc(NS(=O)(=O)c3ccccc3)c(C(=O)O)c2C1 (stereo not shown) [2-Benzenensulphonylamino-5-methyl-4,5,6,7-tetrahydrobenzo[b]thiophene-3-carboxylic acid] | 0.2 to 2 µM
15 | Cn1c2c(c(C(=O)O)c1NS(=O)(=O)c1ccccc1)CCCC2 [2-Benzenesulphonylamino-1-methyl-4,5,6,7-tetrahydro-1H-indole-3-carboxylic acid] | 0.2 to 2 µM
16 | O=C(O)c1c(NS(=O)(=O)c2ccccc2)sc2c1CCCC2 [2-Benzenesulphonylamino-4,5,6,7-tetrahydrobenzo[b]thiophene-3-carboxylic acid] | < 0.2 µM

Row | Compound | IC50
17 | O=C(O)c1c(NS(=O)(=O)c2ccccc2)sc2c1CCOC2 [2-Benzenesulphonylamino-4,7-dihydro-5H-thieno[2,3-c]pyran-3-carboxylic acid] | 0.2 to 2 µM
18 | Cc1c(-c2ccccc2)sc(NS(=O)(=O)c2ccccc2)c1C(=O)O [2-Benzenesulphonylamino-4-methyl-5-phenylthiophene-3-carboxylic acid] | > 2 µM
19 | CC1(C)CCc2sc(NS(=O)(=O)c3ccccc3)c(C(=O)O)c2C1 [2-Benzenesulphonylamino-5,5-dimethyl-4,5,6,7-tetrahydrobenzo[b]thiophene-3-carboxylic acid] | 0.2 to 2 µM
20 | O=C(O)c1c(NS(=O)(=O)c2ccccc2)sc2c1CCC2 [2-Benzenesulphonylamino-5,6-dihydro-4H-cyclopenta[b]thiophene-3-carboxylic acid] | 0.2 to 2 µM
21 | Cc1c(-c2ccoc2)sc(NS(=O)(=O)c2ccccc2)c1C(=O)O [2-Benzenesulphonylamino-5-(furan-3-yl)-4-methylthiophene-3-carboxylic acid] | 0.2 to 2 µM
22 | O=C(O)c1cc(C2CCOCC2)sc1NS(=O)(=O)c1ccccc1 [2-Benzenesulphonylamino-5-(tetrahydropyran-4-yl)thiophene-3-carboxylic acid] | > 2 µM
23 | CCc1sc(NS(=O)(=O)c2ccccc2)c(C(=O)O)c1C(C)C [2-Benzenesulphonylamino-5-ethyl-4-isopropylthiophene-3-carboxylic acid] | 0.2 to 2 µM
24 | CCc1sc(NS(=O)(=O)c2ccccc2)c(C(=O)O)c1C [2-Benzenesulphonylamino-5-ethyl-4-methylthiophene-3-carboxylic acid] | 0.2 to 2 µM
25 | O=C(O)c1cc(-c2ccccc2)sc1NS(=O)(=O)c1ccccc1 [2-Benzenesulphonylamino-5-phenylthiophene-3-carboxylic acid] | > 2 µM
26 | CC1(C)CCc2c(sc(NS(=O)(=O)c3ccccc3)c2C(=O)O)C1 [2-Benzenesulphonylamino-6,6-dimethyl-4,5,6,7-tetrahydrobenzo[b]thiophene-3-carboxylic acid] | 0.2 to 2 µM
27 | O=C(O)c1c(NS(=O)(=O)c2ccccc2)sc2c1COCC2 [2-Benzenesulphonylamino-6,7-dihydro-4H-thieno[3,2-c]pyran-3-carboxylic acid] | 0.2 to 2 µM
28 | CC1CCc2c(sc(NS(=O)(=O)c3ccccc3)c2C(=O)O)C1 (stereo not shown) [2-Benzenesulphonylamino-6-methyl-4,5,6,7-tetrahydrobenzo[b]thiophene-3-carboxylic acid] | < 0.2 µM
29 | O=C(O)c1c(NS(=O)(=O)c2ccccc2)sc2ccccc12 [2-Benzenesulphonylaminobenzo[b]thiophene-3-carboxylic acid] | > 2 µM
30 | O=C(O)c1c(NS(=O)(=O)Cc2ccccc2)sc2c1CCCC2 [2-Phenylmethanesulphonylamino-4,5,6,7-tetrahydrobenzo[b]thiophene-3-carboxylic acid] | 0.2 to 2 µM
31 | CCN(CC)C/C=C\c1ccccc1S(=O)(=O)Nc1sc2c(c1C(=O)O)CCCC2 [2-[2-((Z)-3-Diethylaminoprop-1-enyl)benzenesulphonylamino]-4,5,6,7-tetrahydrobenzo[b]thiophene-3-carboxylic acid] | 0.2 to 2 µM
